The text below walks through data of patent publication US12612420B2, “Arginase inhibitors and methods of use thereof” (Molecure S.A., priority 2020, dated 2026).

The target of assay [1] is T1, recombinant human arginase 1 (hARG1) (Homo sapiens, UniProt P05089).
T1 construct: made in house; host or cells: E. coli
T1 sequence (P05089 1-322): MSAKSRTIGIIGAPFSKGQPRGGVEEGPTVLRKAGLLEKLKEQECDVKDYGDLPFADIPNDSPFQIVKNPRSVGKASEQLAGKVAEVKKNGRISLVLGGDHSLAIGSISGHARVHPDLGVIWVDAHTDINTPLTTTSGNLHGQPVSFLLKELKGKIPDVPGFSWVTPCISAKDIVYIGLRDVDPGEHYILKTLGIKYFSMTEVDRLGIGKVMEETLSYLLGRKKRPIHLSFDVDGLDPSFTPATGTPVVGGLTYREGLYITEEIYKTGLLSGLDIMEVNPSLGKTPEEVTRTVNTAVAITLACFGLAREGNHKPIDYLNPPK
As to the kind of experiment: Human arginase inhibition assay (colorimetric urea detection), arginase 1. It counts as biochemical. To be noted: IC50 class; hydrochloride salts; 1 h at 37° C., pH 7.4, 10 mM L-arginine, 200 μM MnCl2; read-out: Activity Class (ARG I). Here is the method: (§1) Human Arginase Inhibition Assay
(§2) The inhibitory activities of the compounds of the invention were assessed using recombinant human arginases 1 and 2. Both enzymes were biosynthesized using a prokaryotic expression system (E. coli) and purified by fast protein liquid chromatography (FPLC). The compounds were screened in 96-well plates at the total reaction volume of 100 μL. Briefly, recombinant enzymes were incubated with the tested compounds for 1 h at 37° C. in the reaction buffer (100 mM sodium phosphate buffer, 130 mM NaCl, 1 mg/mL BSA, pH 7.4) containing substrate (L-arginine hydrochloride, 10 mM for hARG1 and 20 mM for hARG2) and cofactor (200 μM MnCl2). The assay is based on the detection of urea, which is generated during the conversion of L-arginine into L-omithine catalyzed by ARG1 or ARG2 (Baggio et al. J Pharmacol. Exp. Ther. 1999, 290, 1409-1416). The colorimetrically detectable product was developed by adding a mixture of reagent A (4 mM oPA, 50 mM boric acid, 1 M sulfuric acid, 0.03% Brij-35) and reagent B (4 mM NED, 50 mM boric acid, 1 M sulfuric acid, 0.03% Brij-35) in equal proportions. The absorbance for each well was measured at 515 nm and the enzyme inhibition was calculated. The urea production in the absence of any tested compound was considered as maximal enzyme activity. The absorbance at the absence of arginase (background) was subtracted from all the values. The normalized values were analyzed using GraphPad Prism 7.0 software by plotting inhibition curves and determining the IC50 values.
(§3) The inhibitory activity classes of the hydrochloride salts of the exemplary compounds according to the invention are presented in Table 1

The target in assay [2] is T2, recombinant human arginase 2 (hARG2) (Homo sapiens, UniProt P78540).
T2 construct: made in house; host or cells: E. coli
T2 sequence (P78540 23-354): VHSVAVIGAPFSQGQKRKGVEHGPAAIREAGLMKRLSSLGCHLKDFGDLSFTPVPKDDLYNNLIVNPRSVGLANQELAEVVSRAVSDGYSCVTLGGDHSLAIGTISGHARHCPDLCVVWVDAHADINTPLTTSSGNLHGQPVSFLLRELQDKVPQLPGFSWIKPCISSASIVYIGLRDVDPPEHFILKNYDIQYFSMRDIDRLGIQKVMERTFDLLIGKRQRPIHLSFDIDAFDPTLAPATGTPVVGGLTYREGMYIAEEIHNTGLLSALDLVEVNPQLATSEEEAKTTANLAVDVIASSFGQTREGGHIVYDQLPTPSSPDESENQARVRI
Put plainly: Human arginase inhibition assay (colorimetric urea detection), arginase 2. The format is biochemical. To be noted: IC50 class; hydrochloride salts; 1 h at 37° C., pH 7.4, 20 mM L-arginine, 200 μM MnCl2; read-out: Activity Class (ARG II). Here is the method:
as §1, §2, §3

Structures are written as SMILES. Structures can show the parent of a compound that is named as a salt. A value given as a limit tells only on which side of the number the result lay.

Turning to `C[C@H](N)C(=O)NC[C@@H]1CC[C@@H](CCB(O)O)C[C@]1(N)C(=O)O` [Example 1, (1R,2S,5R)-1-Amino-2-(((S)-2-aminopropanamido)methyl)-5-(2-boronoethyl)cyclohexane-1-carboxylic acid dihydrochloride], the values for the IC50 in assay [1] and in assay [2] were 100 to 199 nM and greater than 300 nM, respectively.

Consider `N[C@@H](CO)C(=O)NC[C@@H]1CC[C@@H](CCB(O)O)C[C@]1(N)C(=O)O` [Example 7, (1R,2S,5R)-1-Amino-2-(((S)-2-amino-3-hydroxypropanamido)methyl)-5-(2-boronoethyl)cyclohexane-1-carboxylic acid dihydrochloride], for which the IC50 in assay [1] is 100 to 199 nM; in assay [2], greater than 300 nM.

`N[C@@H](Cc1c[nH]cn1)C(=O)NC[C@@H]1CC[C@@H](CCB(O)O)C[C@]1(N)C(=O)O` [Example 8, (1R,2S,5R)-1-Amino-2-(((S)-2-amino-3-(1H-imidazol-4-yl)propanamido)methyl)-5-(2-boronoethyl)cyclohexane-1-carboxylic acid trihydrochloride]: the IC50 in assay [1] is 100 to 199 nM; in assay [2] it was greater than 300 nM.

`N[C@H](C(=O)NC[C@@H]1CC[C@@H](CCB(O)O)C[C@]1(N)C(=O)O)C1CCCC1` [Example 11, (1R,2S,5R)-1-Amino-2-(((S)-2-amino-2-cyclopentylacetamido)methyl)-5-(2-boronoethyl)cyclohexane-1-carboxylic acid dihydrochloride]: the values for the IC50 in assay [1] and in assay [2] were 1 to 99 nM and 100 to 199 nM, respectively.

As for `N[C@@H](Cc1ccc(O)cc1)C(=O)NC[C@@H]1CC[C@@H](CCB(O)O)C[C@]1(N)C(=O)O` [Example 14, (1R,2S,5R)-1-Amino-2-(((S)-2-amino-3-(4-hydroxyphenyl)propanamido)methyl)-5-(2-boronoethyl)cyclohexane-1-carboxylic acid dihydrochloride], the IC50 in assay [1] was 200 to 299 nM; in assay [2], greater than 300 nM.

As for `NC(=O)C[C@H](N)C(=O)NC[C@@H]1CC[C@@H](CCB(O)O)C[C@]1(N)C(=O)O` [Example 15, (1R,2S,5R)-1-Amino-5-(2-boronoethyl)-2-(((S)-2,4-diamino-4-oxobutanamido)methyl)cyclohexane-1-carboxylic acid dihydrochloride], the IC50 in assay [1] is 200 to 299 nM; in assay [2] it was greater than 300 nM.

As for `CC(C)(O)[C@H](N)C(=O)NC[C@@H]1CC[C@@H](CCB(O)O)C[C@]1(N)C(=O)O` [Example 16, (1R,2S,5R)-1-Amino-2-(((S)-2-amino-3-hydroxy-3-methylbutanamido)methyl)-5-(2-boronoethyl)cyclohexane-1-carboxylic acid dihydrochloride], the IC50 was 100 to 199 nM in assay [1] and greater than 300 nM in assay [2].

In the case of `N[C@@H](Cc1c[nH]c2ccccc12)C(=O)NC[C@@H]1CC[C@@H](CCB(O)O)C[C@]1(N)C(=O)O` [Example 18, (1R,2S,5R)-1-Amino-2-(((S)-2-amino-3-(1H-indol-3-yl)propanamido)methyl)-5-(2-boronoethyl)cyclohexane-1-carboxylic acid dihydrochloride], the IC50 in assay [1] is 100 to 199 nM; in assay [2], greater than 300 nM.

For the molecule `C[C@@H](O)[C@H](N)C(=O)NC[C@@H]1CC[C@@H](CCB(O)O)C[C@]1(N)C(=O)O` [Example 19, (1R,2S,5R)-1-Amino-2-(((2S,3R)-2-amino-3-hydroxybutanamido)methyl)-5-(2-boronoethyl)cyclohexane-1-carboxylic acid dihydrochloride], the IC50 in assay [1] was 100 to 199 nM; in assay [2], greater than 300 nM.

With `CCC[C@H](N)C(=O)NC[C@@H]1CC[C@@H](CCB(O)O)C[C@]1(N)C(=O)O` [Example 20, (1R,2S,5R)-1-Amino-2-(((S)-2-aminopentanamido)methyl)-5-(2-boronoethyl)cyclohexane-1-carboxylic acid dihydrochloride], the IC50 in assay [1] was 1 to 99 nM; in assay [2], greater than 300 nM.

Regarding `CC(C)[C@@](C)(N)C(=O)NC[C@@H]1CC[C@@H](CCB(O)O)C[C@]1(N)C(=O)O` [Example 21, (1R,2S,5R)-1-Amino-2-((2-amino-2,3-dimethylbutanamido)methyl)-5-(2-boronoethyl)cyclohexane-1-carboxylic acid dihydrochloride], the IC50 in assay [1] is 200 to 299 nM; in assay [2] it was greater than 300 nM.

`C[C@@H](N)C(=O)NC[C@@H]1CC[C@@H](CCB(O)O)C[C@]1(N)C(=O)O` [Example 22, (1R,2S,5R)-1-Amino-2-(((R)-2-aminopropanamido)methyl)-5-(2-boronoethyl)cyclohexane-1-carboxylic acid dihydrochloride]: the IC50 in assay [1] is 1 to 99 nM; in assay [2], greater than 300 nM.

On to `CC(C)[C@@H](N)C(=O)NC[C@@H]1CC[C@@H](CCB(O)O)C[C@]1(N)C(=O)O` [Example 23, (1R,2S,5R)-1-Amino-2-(((R)-2-amino-3-methylbutanamido)methyl)-5-(2-boronoethyl)cyclohexane-1-carboxylic acid dihydrochloride], for which the values for the IC50 in assay [1] and in assay [2] were 1 to 99 nM and greater than 300 nM, respectively.

As for `C[C@H](N)C(=O)N(C)C[C@@H]1CC[C@@H](CCB(O)O)C[C@]1(N)C(=O)O` [Example 24, (1R,2S,5R)-1-Amino-2-(((S)-2-amino-N-methylpropanamido)methyl)-5-(2-boronoethyl)cyclohexane-1-carboxylic acid dihydrochloride], the IC50 in assay [1] was 100 to 199 nM; in assay [2] it was greater than 300 nM.

As for `CC(C)[C@H](N)C(=O)N(C)C[C@@H]1CC[C@@H](CCB(O)O)C[C@]1(N)C(=O)O` [Example 25, (1R,2S,5R)-1-Amino-2-(((S)-2-amino-N,3-dimethylbutanamido)methyl)-5-(2-boronoethyl)cyclohexane-1-carboxylic acid dihydrochloride], the results for the IC50 in assay [1] and in assay [2] were 1 to 99 nM and greater than 300 nM, respectively.

Take `Cn1cc(C[C@@H](N)C(=O)NC[C@@H]2CC[C@@H](CCB(O)O)C[C@]2(N)C(=O)O)c2ccccc21` [Example 26, (1R,2S,5R)-1-Amino-2-(((R)-2-amino-3-(1-methyl-1H-indol-3-yl)propanamido)methyl)-5-(2-boronoethyl)cyclohexane-1-carboxylic acid dihydrochloride]: the IC50 was 100 to 199 nM in assay [1] and greater than 300 nM in assay [2].

Take `N[C@@H](CS)C(=O)NC[C@@H]1CC[C@@H](CCB(O)O)C[C@]1(N)C(=O)O` [Example 27, (1R,2S,5R)-1-Amino-2-(((R)-2-amino-3-mercaptopropanamido)methyl)-5-(2-boronoethyl)cyclohexane-1-carboxylic acid dihydrochloride]: the IC50 was 200 to 299 nM in assay [1] and greater than 300 nM in assay [2].

Turning to `NC(=O)CC[C@H](N)C(=O)NC[C@@H]1CC[C@@H](CCB(O)O)C[C@]1(N)C(=O)O` [Example 28, (1R,2S,5R)-1-Amino-5-(2-boronoethyl)-2-(((S)-2,5-diamino-5-oxopentanamido)methyl)cyclohexane-1-carboxylic acid dihydrochloride], the IC50 in assay [1] is 100 to 199 nM; in assay [2] it was greater than 300 nM.

For the molecule `N[C@@H](CC(=O)O)C(=O)NC[C@@H]1CC[C@@H](CCB(O)O)C[C@]1(N)C(=O)O` [Example 29, (1R,2S,5R)-1-Amino-2-(((S)-2-amino-3-carboxypropanamido)methyl)-5-(2-boronoethyl)cyclohexane-1-carboxylic acid dihydrochloride], the IC50 in assay [1] and in assay [2] was greater than 300 nM in each case.
